{"source": "patent US20210071138A1", "about": "“GAMETOGENESIS” (United Kingdom Research and Innovation, priority 2017, published 2021)", "key": {"[1]": {"tested_on": "germline reprogramming responsive (GRR) genes", "assay": "RNA-Seq differential expression of GRR genes in mESCs", "type": "cell-based, mouse", "experimental": "J1 (wild type), Dnmt-TKO^23 and Tet1-KO Dnmt-TKO mESCs were cultured in FCS/LIF medium without feeders on 0.1% gelatin. FCS/LIF medium consists of GMEM (Gibco) supplemented with 10% FCS, 0.1 mM MEM nonessential amino acids, 2 mM 1-glutamine, 1 mM sodium pyruvate, 0.1 mM 2-mercaptoethanol and mouse LIF (ESGRO, Millipore). For inhibitor experiments, mESCs were plated at a density of 1.5×10^4/cm^2 and left overnight. The next morning medium was exchanged for FCS/LIF medium containing either 50 μM PRC1 inhibitor PRT4165 (Ismail et al., 2013) or DMSO control and cells pelleted at the indicated time for analysis. […]\nFor study of Tet1-KO and Tet1-WT PGCs, Illumina and Smart-seq adapters from the sequencing reads were first trimmed using Trimmomatic. […] RNA-Seq reads were aligned to the mouse genome (mm9, NCBI build 37) with Bowtie (version 0.12.8) and Tophat (version 2.0.2) with options -N 2 --b2-very-sensitive --b2-L 25. […] Read counts per annotated gene were computed using HTSeq (version 0.5.3p9) and expression level of each gene was quantified by computing the number of fragments detected per kilobase per million of reads (FPKM) using custom R script. […] For determining gene expression levels in wild type and Dnmt1-conditional knockout and matched wild type E10.5 PGCs, raw RNA-Seq reads were downloaded from GSE74938^24 and processed as above. […]"}, "[2]": {"target": "T1, PRC1 (Mus musculus, UniProt Q9CQJ4)", "T1 construct": "endogenous in cells; host or cells: J1 (wild type) and Dnmt-TKO mouse embryonic stem cells", "T1 sequence (Q9CQJ4 1-336)": "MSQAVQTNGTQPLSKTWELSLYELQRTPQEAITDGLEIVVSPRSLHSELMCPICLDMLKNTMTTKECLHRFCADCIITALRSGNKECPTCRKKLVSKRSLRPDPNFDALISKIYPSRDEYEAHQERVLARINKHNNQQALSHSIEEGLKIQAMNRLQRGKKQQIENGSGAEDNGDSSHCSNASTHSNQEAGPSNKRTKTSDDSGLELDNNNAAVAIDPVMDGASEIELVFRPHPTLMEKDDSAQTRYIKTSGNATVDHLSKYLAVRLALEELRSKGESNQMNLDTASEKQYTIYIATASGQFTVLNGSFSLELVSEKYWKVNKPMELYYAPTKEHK", "assay": "Western blot of H2Aub in mESCs cultured with PRC1 inhibitor", "type": "cell-based", "details": "50 μM PRT4165, after 6h of culture, vs DMSO control (FIG. 15b)", "experimental": "J1 (wild type), Dnmt-TKO^23 and Tet1-KO Dnmt-TKO mESCs were cultured in FCS/LIF medium without feeders on 0.1% gelatin. FCS/LIF medium consists of GMEM (Gibco) supplemented with 10% FCS, 0.1 mM MEM nonessential amino acids, 2 mM 1-glutamine, 1 mM sodium pyruvate, 0.1 mM 2-mercaptoethanol and mouse LIF (ESGRO, Millipore). For inhibitor experiments, mESCs were plated at a density of 1.5×10^4/cm^2 and left overnight. The next morning medium was exchanged for FCS/LIF medium containing either 50 μM PRC1 inhibitor PRT4165 (Ismail et al., 2013) or DMSO control and cells pelleted at the indicated time for analysis.\nmESCs were lysed by sonication in RIPA buffer (150 mM sodium chloride, 1.0% Triton X-100, 0.5% sodium deoxychlorate, 0.1% sodium dodecylsulfate, 50 mM Tris pH 8.0) and protease-inhibitor cocktail (Roche, 11 697 498 001). Cell debris were removed by centrifugation at 14000 g 5 min 4° C. Protein was quantified using the BCA protein assay (Thermo, 23227). 2 μg (for H2A and H2Aub) or 20 μg (for Tet1) of each protein extract was loaded onto an 15% or 8% SDS polyacrylamide gel and transferred to a PVDF membrane after electrophoresis. Membranes were blocked with 5% BSA for 1 hour and then incubated overnight at 4° C. with primary antibodies at the following dilutions: anti-H2A antibody (Abcam, 18255) 1:2000; anti-ubiquityl H2A antibody (Cell Signalling 8240) 1:2000; anti-Tet1 antibody [N1] […]"}}, "data": [{"smiles": "O=C1C(=Cc2cccnc2)C(=O)c2ccccc21", "note": "[PRT4165]", "values": [{"measurement": "number of GRR genes activated (of 45) upon dual inhibition of 5mC/PRC1 repression", "setting": "[1]; Dnmt-TKO mESCs + 6h PRT4165 (50 μM) vs wild type + 6h DMSO (FIG. 4d, 15c)", "result": 33, "unit": "GRR genes"}, {"measurement": "number of GRR genes activated (of 45) upon sole inhibition of PRC1 repression", "setting": "[1]; wild type mESCs + 6h PRT4165 (50 μM) vs wild type + 6h DMSO (FIG. 4d, 15c)", "result": 10, "unit": "genes"}, {"measurement": "inhibition of PRC1-mediated H2A ubiquitination", "setting": "[2]", "result": "significant inhibition"}]}]}
